The text below walks through data of patent US4806532A, “Inhibition of epithelial phosphate transport” (Mayo Foundation for Medical Education and Research, priority 1985, dated 1989).

In the assay the target is T1, Na-Pi cotransporter (Canis lupus familiaris, UniProt A0A8I3NFY6).
T1 construct: were prepared from renal cortices of mongrel dogs, albino mice and New Zealand albino rabbits; from tissue; host or cells: mongrel dog renal cortex, brush border membrane vesicles
T1 sequence (A0A8I3NFY6 1-639): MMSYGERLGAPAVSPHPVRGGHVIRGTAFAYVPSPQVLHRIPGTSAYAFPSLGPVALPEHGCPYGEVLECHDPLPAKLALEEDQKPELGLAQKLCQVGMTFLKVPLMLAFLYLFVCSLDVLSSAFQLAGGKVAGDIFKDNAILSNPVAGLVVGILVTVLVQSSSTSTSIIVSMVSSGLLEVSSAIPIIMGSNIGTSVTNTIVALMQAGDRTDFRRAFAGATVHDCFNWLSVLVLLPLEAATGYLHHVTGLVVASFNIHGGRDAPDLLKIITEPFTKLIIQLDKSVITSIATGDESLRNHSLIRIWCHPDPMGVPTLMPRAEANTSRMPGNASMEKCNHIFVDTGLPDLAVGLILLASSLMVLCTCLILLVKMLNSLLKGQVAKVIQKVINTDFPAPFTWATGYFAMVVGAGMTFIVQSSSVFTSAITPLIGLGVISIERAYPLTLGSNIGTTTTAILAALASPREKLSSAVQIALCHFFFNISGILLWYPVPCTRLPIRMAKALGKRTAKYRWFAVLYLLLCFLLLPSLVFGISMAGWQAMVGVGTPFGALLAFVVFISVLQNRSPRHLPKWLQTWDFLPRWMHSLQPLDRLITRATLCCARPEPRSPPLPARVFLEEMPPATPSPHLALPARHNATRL
In words: Na+-gradient-dependent 32Pi uptake by renal BBMV, dog. The format is biochemical. Here is the method:
The brush border membrane vesicles (BBMV) were prepared from renal cortical tissue of adult male Sprague-Dawley rats of an average body weight of about 220 grams. Rats were fed ad libitum standard rat chow containing 0.7% Pi and had free access to distilled water. Rats were sacrificed under anesthesia and dissected renal cortical tissue was used for preparation of BBMV fraction by the divalent cation-precipitation procedure, employed and described in detail in J. Clin. Invest., 67, 1347 (1981) and J. Biol. Chem., 258, 5695 (1983), with the following modifications: (a) MgCl2 instead of CaCl2 was added to crude homogenate (final concentration 10 mM MgCl2) to precipitate membranes other than BBMV; (b) in the final step, BBMV were washed and equilibrated in a medium of pH=7.5, instead of pH=8.5. The enrichment and specific activities of typical BBM enzymes alkaline phosphatase (APases), γ-glutyamyl transferase (γ-GTT), leucineaminopeptidase (LAP) and maltase with use of these modifications were similar as in BBMV fractions prepared in our previous studies. As a final step in the preparative procedure, the BBMV fraction was washed and resuspended in a medium containing 300 mM mannitol and 5 mM Tris-HEPES adjusted to pH=t.5, referred to as "MTH-medium," unless specified otherwise. The analogous BBMV fractions, using the same procedure, were prepared from renal cortices of mongrel dogs, albino mice and New Zealand albino rabbits.
The BBMV uptake of ^32 Pi, D-[^3 H]-glucose, L-[^3 H]-proline and ^22 Na^+ was measured by means of a rapid filtration technique, as described in J. Clin. Invest., 67, 1347 (1981) and Am. J. Physiol., 246, F133-F139 (1984). Also, unless specified otherwise, the medium for the solute uptake assay consisted of following compounds (in final concentrations): 100 mM mannitol, 100 mM NaCl (or 100 mM KC1) and 5 mM Tris-HEPES (pH=7.5) and eitehr 0.1 mM K2 H^32 PO4, or 0.05 mM D-[^3 H]-glucose, or 0.025 mM L-[^3 H]-proline. IN the ^22 Na^+ uptake studies, the assay medium contained 100 mM ^22 NaCl (^22 NaCl about […] per tube), 100 mM mannitol and 5 mM Tris-HEPES (pH 7.5).
In most experiments, the Na^+ -gradient-dependent ^32 Pi uptake in the concentrative "uphill" phase was measured at 20 seconds period. Since Na^+ -independent Pi uptake in this time period was quantitatively minor component (<5%) of the Na^+ -gradient-dependent Pi uptake, it was not routinely subtracted.

Structures can show the parent of a compound that is named as a salt.

As for `O=C(O)P(=O)(O)O` [TPFA, Phosphonoformic acid, trisodium salt hexahydrate], the “32Pi-uptake 120 min” value (1 mM TPFA, control 410 ± 5) is 377 ± 6 pmoles Pi/mg protein/time and the “32Pi-uptake 120 min” value (5 mM TPFA) amounted to 428 ± 9 pmoles Pi/mg protein/time. The “32Pi-uptake 20 sec” value (1 mM TPFA, control 1178 ± 15) was 476 ± 9 pmoles Pi/mg protein/time and the “32Pi-uptake 20 sec” value (5 mM TPFA) worked out at 110 ± 3 pmoles Pi/mg protein/time. Besides, the inhibition at 1000 µM (20 s, 1 mM TPFA, read-out: percent decrease of 20 sec 32Pi-uptake relative to control value) is 59.6%. The inhibition at 5000 µM (20 s, 5 mM TPFA, read-out: percent decrease of 20 sec 32Pi-uptake relative to control value) was found to be 90.7%.
